Where a SMILES comes first, the peptide text is derived from it.
Experiments:
amylin receptors = biological target: T1, amylin receptors (Rattus norvegicus, UniProt P32214); test: Receptor binding assay (125I-rat amylin competition, rat basal forebrain membranes); settings: competition with 125I-rat amylin at 12-16 pM
T1 construct: This basal forebrain tissue, containing the nucleus accumbens and surrounding regions, was weighed and homogenized; from tissue; host or cells: rat basal forebrain (nucleus accumbens and surrounding regions) membranes
T1 sequence (P32214 25-516): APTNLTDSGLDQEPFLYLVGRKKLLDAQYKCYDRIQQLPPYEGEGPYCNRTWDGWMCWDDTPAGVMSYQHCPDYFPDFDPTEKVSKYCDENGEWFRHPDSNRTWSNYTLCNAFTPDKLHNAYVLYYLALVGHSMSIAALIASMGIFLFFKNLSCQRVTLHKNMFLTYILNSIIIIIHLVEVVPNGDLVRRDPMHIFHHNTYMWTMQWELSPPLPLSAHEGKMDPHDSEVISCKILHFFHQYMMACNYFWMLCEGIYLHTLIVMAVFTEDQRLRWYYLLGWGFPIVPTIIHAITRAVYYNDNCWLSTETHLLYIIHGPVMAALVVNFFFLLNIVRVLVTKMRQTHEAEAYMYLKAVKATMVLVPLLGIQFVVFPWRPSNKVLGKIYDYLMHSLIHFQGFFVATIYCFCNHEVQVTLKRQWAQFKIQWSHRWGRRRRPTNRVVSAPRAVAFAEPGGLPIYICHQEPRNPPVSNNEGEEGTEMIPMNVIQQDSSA
T1 sequence (Q9JJ74 27-148 partner): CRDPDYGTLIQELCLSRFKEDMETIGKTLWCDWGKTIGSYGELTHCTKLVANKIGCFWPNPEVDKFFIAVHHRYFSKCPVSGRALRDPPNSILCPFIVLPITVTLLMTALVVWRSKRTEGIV
From the text: Unlabeled peptides were obtained from BACHEM Inc. (Torrance, Calif.) and Peninsula Laboratories (Belmont, Calif.).
Male Sprague-Dawley rats (200-250) grams were sacrificed by decapitation. Brains were removed to cold phosphate-buffered saline (PBS). From the ventral surface, cuts were made rostral to the hypothalamus, bounded laterally by the olfactory tracts and extending at a 45Ε angle medially from these tracts. This basal forebrain tissue, containing the nucleus accumbens and surrounding regions, was weighed and homogenized in ice-cold 20 mM HEPES buffer (20 mM HEPES acid, pH adjusted to 7.4 with NaOH at 23ΕC). […] The final membrane pellet was resuspended in 20 mM HEPES buffer containing 0.2 mM phenylmethylsulfonyl fluoride (PMSF).
Solutions were incubated for 60 minutes at 2ΕC. […] Filters were washed immediately before filtration with 5 ml cold PBS, and immediately after filtration with 15 ml cold PBS.

Solubility = assay type: physicochemical; settings: where a comparison is made, compared with human amylin
From the text: (§1) This may be due in some measure, although this is not known, to the different aggregation properties of the amylins from different species.
(§2) The agonist analogues of amylin of this invention are useful in view of their pharmacological properties. […] In addition to the description of compounds pursuant to FIG. 3, certain preferred compounds are set forth in Table I. The preferred compounds des-^1Lys-h-amylin [SEQ. ID. NO. 7], ^28Pro-h-amylin [SEQ. ID. NO. 8], ^25, 28, 29Pro-h-amylin [SEQ. ID. NO. 9], ^18Arg^25, 28Pro-h-amylin [SEQ. ID. NO. 10], and des-^1Lys^18Arg^25, 28Pro-h-amylin [SEQ. ID. NO. […] These preferred compounds include ^25Pro^26Val^28, 29Pro-h-amylin [SEQ. ID. NO. 12], ^25, 28, 29Pro-h-amylin, and ^18Arg^25, 28Pro-h-amylin.

Stability in solution = assay type: physicochemical; settings: where a comparison is made, compared with human amylin
From the text: as §1, §2

With CC[C@H](C)[C@H](NC(=O)[C@H](C)NC(=O)CNC(=O)[C@H](Cc1ccccc1)NC(=O)[C@H](CC(N)=O)NC(=O)[C@H](CC(N)=O)NC(=O)[C@H](CO)NC(=O)[C@H](CO)NC(=O)[C@H](Cc1c[nH]cn1)NC(=O)[C@@H](NC(=O)[C@H](CC(C)C)NC(=O)[C@H](Cc1ccccc1)NC(=O)[C@H](CC(N)=O)NC(=O)[C@H](C)NC(=O)[C@H](CC(C)C)NC(=O)[C@H](CCCNC(=N)N)NC(=O)[C@H](CCC(N)=O)NC(=O)[C@@H](NC(=O)[C@H](C)NC(=O)[C@@H]1CCCCNC(=O)C[C@H](NC(=O)[C@@H](N)CCCCN)C(=O)N[C@@H](CC(N)=O)C(=O)N[C@@H]([C@@H](C)O)C(=O)N[C@@H](C)C(=O)N[C@@H]([C@@H](C)O)C(=O)N1)[C@@H](C)O)C(C)C)C(=O)N[C@@H](CC(C)C)C(=O)N[C@@H](CO)C(=O)N[C@@H](CO)C(=O)N[C@H](C(=O)N[C@@H](CC(N)=O)C(=O)N[C@H](C(=O)NCC(=O)N[C@@H](CO)C(=O)N[C@@H](CC(N)=O)C(=O)N[C@H](C(=O)N[C@@H](Cc1ccc(O)cc1)C(N)=O)[C@@H](C)O)C(C)C)[C@@H](C)O [Example 3, ^2, 7Cyclo-[^2Asp, ^7Lys]-h-Amylin] (HELM PEPTIDE1{K.D.N.T.A.T.K.A.T.Q.R.L.A.N.F.L.V.H.S.S.N.N.F.G.A.I.L.S.S.T.N.V.G.S.N.T.Y.[am]}$PEPTIDE1,PEPTIDE1,2:R3-7:R3$$$V2.0) the IC50 (amylin receptors) was 0.31 nM.

For CC[C@H](C)[C@H](NC(=O)[C@H](C)NC(=O)CNC(=O)[C@H](Cc1ccccc1)NC(=O)[C@H](CC(N)=O)NC(=O)[C@H](CC(N)=O)NC(=O)[C@H](CO)NC(=O)[C@H](CO)NC(=O)[C@H](Cc1c[nH]cn1)NC(=O)[C@@H](NC(=O)[C@H](CC(C)C)NC(=O)[C@H](Cc1ccccc1)NC(=O)[C@H](CC(N)=O)NC(=O)[C@H](C)NC(=O)[C@H](CC(C)C)NC(=O)[C@H](CCCNC(=N)N)NC(=O)[C@H](CCC(N)=O)NC(=O)[C@@H](NC(=O)[C@H](C)NC(=O)[C@@H]1CSSC[C@H](NC(=O)[C@@H](N)CCCCN)C(=O)N[C@@H](CC(N)=O)C(=O)N[C@@H]([C@@H](C)O)C(=O)N[C@@H](C)C(=O)N[C@@H]([C@@H](C)O)C(=O)N1)[C@@H](C)O)C(C)C)C(=O)N[C@@H](CC(C)C)C(=O)N[C@@H](CO)C(=O)N[C@@H](CO)C(=O)N[C@H](C(=O)N[C@@H](CC(N)=O)C(=O)N[C@H](C(=O)NCC(=O)N[C@@H](CO)C(=O)N[C@@H](CC(N)=O)C(=O)N[C@H](C(=O)N[C@@H](Cc1ccc(O)cc1)C(N)=O)[C@@H](C)O)C(C)C)[C@@H](C)O [human amylin], the solubility (Solubility) was “limited solubility” and the stability in solution (Stability in solution) was “limited stability”.

For rat amylin, the solubility (Solubility) was “higher” and the stability in solution (Stability in solution) was “higher”.

Source: patent US6610824B2 (Amylin Pharmaceuticals, Inc., priority 1991, dated 2003)
